Values of other authors in patent US20260355228A1, “TREATMENT OF FAMILIAL ADENOMATOUS POLYOPSIS USING A 13-MEMBERED MACROLIDE” (ZIKANI THERAPEUTICS, INC., priority 2022, published 2026).

Tests used:
[1] = tested on: APC gene nonsense mutations in colorectal cancer cell lines; settings: colorectal cancer cell lines [23, 24]
[2] = tested on: human colorectal xenografts possessing APC nonsense mutations; settings: xenografts possessing APC nonsense mutations [23, 24]
mouse model of FAP = mouse model of FAP [23, 24]
[3] = tested on: FAP patients harboring APC nonsense mutations; settings: clinical study, FAP patients [25]
[4] = tested on: APC (SW1417 colon carcinoma cells); settings: SW1417 cells [23]
[5] = tested on: APC gene nonsense mutations in in vivo colon carcinoma models; settings: in vivo colon carcinoma models [23]
APC L360X stop codon = settings: luciferase based reporter vector [40]

Row | Compound | suppression of nonsense mutations / translation termination in the APC gene [1] | in vivo growth of human colorectal xenografts [2] | number of intestinal polyps (mouse model of FAP) | adenoma burden [3] | read-through of the nonsense mutation leading to synthesis of full-length, active APC protein [4] | suppression of translation termination generated by nonsense mutations in the APC gene [5] | susceptibility of the L360X stop codon to read-through (APC L360X stop codon)
1 | CC[C@H]1OC(=O)[C@H](C)[C@@H](O[C@H]2C[C@@](C)(OC)[C@@H](O)[C@H](C)O2)[C@H](C)[C@@H](O[C@@H]2O[C@H](C)C[C@H](N(C)C)[C@H]2O)[C@](C)(O)C[C@@H](C)C(=O)[C@H](C)[C@@H](O)[C@]1(C)O [erythromycin] | suppressed nonsense mutations in the APC gene in human colon carcinoma cells | inhibited the in vivo growth of human colorectal xenografts | reduced the number of intestinal polyps | decrease in adenoma burden | – | – | –
2 | CC[C@H]1OC(=O)C[C@@H](O)[C@H](C)[C@@H](O[C@@H]2O[C@H](C)[C@@H](O[C@H]3C[C@@](C)(O)[C@@H](O)[C@H](C)O3)[C@H](N(C)C)[C@H]2O)[C@@H](CC=O)C[C@@H](C)C(=O)/C=C/C(C)=C/[C@@H]1CO[C@@H]1O[C@H](C)[C@@H](O)[C@@H](OC)[C@H]1OC [tylosin] | can suppress translation termination generated by nonsense mutations in the APC gene | – | – | – | low level of full-length, active APC protein | can suppress translation termination generated by nonsense mutations in the APC gene | –
3 | gentamicin | suppressed nonsense mutations in the APC gene in human colon carcinoma cells | inhibited the in vivo growth of human colorectal xenografts | reduced the number of intestinal polyps | – | – | – | most susceptible
